Assay results as given in patent US20250170140A1, “PHARMACEUTICAL COMPOSITION FOR PREVENTING OR TREATING CANCER COMPRISING CARNITINE ACYLCARNITINE CARRIER INHIBITOR AND PEROXISOMAL BETA OXIDATION INHIBITOR” (priority 2021, published 2025).

Experiments:
Format in all cases: cell-based
DLD-1 cells = experiment: SRB assay, colon cancer cell line DLD-1
Protocol: (§1) As a comparison, omeprazole (KN510) and trimetazidine (KN713), a 3-ketoacyl CoA thiolase inhibitor, were co-treated. […] After cell inoculation, 96-well cell culture plates were incubated for 24 hours before the addition of experimental drugs. […] The cells were then incubated in a CO2 incubator for 48 hours, after which the assay was terminated by the addition of cold TCA. Cells were fixed in situ by gently adding 50 μl of cold 50% (w/v) TCA (final concentration: 10% TCA) and incubated at 4° C. for 60 min. The supernatant was discarded, and the plate was washed five times with distilled water and air dried. Sulforhodamine B (SRB) solution (100 μl) of 0.4% (w/v) in 1% acetic acid was added to each well, and the plate was left at room temperature for 10 min. After staining, unbound dye was removed by washing five times with 1% acetic acid, and the plate was air-dried. The bound dye was then solubilized with 10 mM trizma base, and the absorbance was recorded at 515 nm using an automated plate reader. […] The predicted synergistic activity of a combination of the present invention can be calculated using the Colby Equation in Equation 1 (S.R. Colby, Weeds, 1967, pp. 15, 20-22): In the present invention, the actual measure of anti-cancer activity of the combination treatment was the inhibition rate of cancer cell growth (%), and the predicted value (E) of the combination treatment was measured by substituting it into the above Colby Equation.

MKN-28 cells = experiment: SRB assay, stomach cancer cell line MKN-28
Protocol: as §1

H1975 cells = experiment: SRB assay, lung cancer cells H1975
Protocol: as §1

CAKI-1 cells = experiment: SRB assay, renal cell carcinoma cell line CAKI-1
Protocol: as §1

MCF-7 cells = experiment: SRB assay, breast cancer cell line MCF-7
Protocol: To determine the effect of the combination treatment of omeprazole (KN510), a carnitine acylcarnitine carrier inhibitor, and thioridazine (KN714), a peroxisome beta-oxidation inhibitor, on cancer cell growth, the extent of cancer cell death was determined using the SRB assay (Sulforhodamine B colorimetric assay), and the degree of cancer cell growth was analyzed relative to the control (100%). As a comparison, omeprazole (KN510) and trimetazidine (KN713), a 3-ketoacyl CoA thiolase inhibitor, were co-treated.
First, a pancreatic cancer cell line, MIA PaCa-2, was prepared, and cells (100 μl) were inoculated into 96-well cell culture plates at plating densities ranging from 5,000 to 20,000 cells/well, depending on the doubling time of each cell line. After cell inoculation, 96-well cell culture plates were incubated for 24 hours before the addition of experimental drugs. MIA PaCa2 cells were treated with omeprazole (KN510) at concentrations of 10^−8 M, 10^−7 M, 10^−6 M, 10^−5 M, 10^−4 M, and 10^−3 M, thioridazine (KN714) at concentrations of 10^−10 M, 10^−9 M, 10^−8M, 10^−7 M, 10^−6 M, and 10^−5 M, and trimetazidine (KN713) at concentrations of 10^−7 M, 10^−6 M, 10^−5 M, 10^−4 M, 10^−3 M, and 10^−2 M, respectively.
The cells were then incubated in a CO2 incubator for 48 hours, after which the assay was terminated by the addition of cold TCA. Cells were fixed in situ by gently adding 50 μl of cold 50% (w/v) TCA (final concentration: 10% TCA) and incubated at 4° C. for 60 min. The supernatant was discarded, and the plate was washed five times with distilled water and air dried. Sulforhodamine B (SRB) solution (100 μl) of 0.4% (w/v) in 1% acetic acid was added to each well, and the plate was left at room temperature for 10 min. After staining, unbound dye was removed by washing five times with 1% acetic acid, and the plate was air-dried. The bound dye was then solubilized with 10 mM trizma base, and the absorbance was recorded at 515 nm using an automated plate reader.
Based on Table 1 above and GI50 values, omeprazole (KN510) and/or thioridazine (KN714) concentrations were added to each well such that the concentrations were as shown in the following groups, and then cancer cell death was measured in the same manner as in Examples 1-1 above. • 1) Control, • 2) Thioridazine (KN714) 5 μM alone treatment group, • 3) Thioridazine (KN714) 10 μM alone treatment group, • 4) Omeprazole (KN510) 200 μM alone treatment group, • 5) Omeprazole (KN510) 200 μM+thioridazine (KN714) 5 μM combination treatment group, • 6) Omeprazole (KN510) 200 μM+thioridazine (KN714) 10 μM combination treatment group.
When the anticancer activity of two compounds in combination is greater than the simple sum of the anticancer activity of the individual compounds (expected activity), this is called synergistic. The predicted synergistic activity of a combination of the present invention can be calculated using the Colby Equation in Equation 1 (S.R. Colby, Weeds, 1967, pp. 15, 20-22): […]
In the present invention, the actual measure of anti-cancer activity of the combination treatment was the inhibition rate of cancer cell growth (%), and the predicted value (E) of the combination treatment was measured by substituting it into the above Colby Equation. If the actual value is greater than the predicted value, it can be judged that there is a synergistic effect, and in this invention, the predicted value calculated by the Colby Equation and the actual value were compared to further verify the synergistic effect of the combination.
Experiments were performed using the breast cancer cell lines MCF-7 cells (1.2×10^4 cells/well) and MDA-MB-231 cells (8.0×10^3 cells/well) in the same manner as in Examples 1-2 and 1-3 above.

A549 cells = experiment: SRB assay, lung cancer cells A549
Protocol: as §1

UACC-62 cells = experiment: SRB assay, melanoma cell line UACC-62
Protocol: as §1

SK-OV-3 cells = experiment: SRB assay, ovarian cancer cells SK-OV-3
Protocol: as §1

[1] = Homo sapiens, KN510 100 μM, read-out: Inhibition rate of cancer cell growth (%) (Actual value)
[2] = Homo sapiens, KN510 200 μM, read-out: Inhibition rate of cancer cell growth (%) (Actual value)
[3] = Homo sapiens, KN714 5 μM, read-out: Inhibition rate of cancer cell growth (%) (Actual value)
[4] = Homo sapiens, KN714 10 μM, read-out: Inhibition rate of cancer cell growth (%) (Actual value)

In the case of `COc1ccc2[nH]c([S+]([O-])Cc3ncc(C)c(OC)c3C)nc2c1` (stereo not shown) [KN510, omeprazole], the inhibition at 100 µM (DLD-1 cells; [1]) is reported as 26.1%, the inhibition at 200 µM (DLD-1 cells; [2]) is reported as 63.2% and the “Cancer cell growth rate Average (%)” value (DLD-1 cells; KN510 100 μM) is reported as 73.90%. The “Cancer cell growth rate Average (%)” value (DLD-1 cells; KN510 200 μM) was 36.78%, the inhibition at 100 µM (MKN-28 cells; [1]) was 50.2% and the inhibition at 200 µM (MKN-28 cells; [2]) was 74.8%. For the same compound, the “Cancer cell growth rate Average (%)” value (MKN-28 cells; KN510 100 μM) was 49.80%, the “Cancer cell growth rate Average (%)” value (MKN-28 cells; KN510 200 μM) was 25.20% and the inhibition at 100 µM (H1975 cells; Homo sapiens, NCI-H1975, KN510 100 μM, read-out: Inhibition rate of cancer cell growth (%) (Actual value)) was 15.5%. For the same compound, the inhibition at 200 µM (H1975 cells; Homo sapiens, NCI-H1975, KN510 200 μM, read-out: Inhibition rate of cancer cell growth (%) (Actual value)) was 56.8%, the “Cancer cell growth rate Average (%)” value (H1975 cells; KN510 100 μM) was 84.54% and the “Cancer cell growth rate Average (%)” value (H1975 cells; KN510 200 μM) was 43.18%. For the same compound, the inhibition at 100 µM (CAKI-1 cells; [1]) was 32%, the inhibition at 200 µM (CAKI-1 cells; [2]) was 72.9% and the “Cancer cell growth rate Average (%)” value (CAKI-1 cells; KN510 100 μM) was 67.99%. The “Cancer cell growth rate Average (%)” value (CAKI-1 cells; KN510 200 μM) was 27.11%, the inhibition at 100 µM (MCF-7 cells; Homo sapiens, MCF7, KN510 100 μM, read-out: Inhibition rate of cancer cell growth (%) (Actual value)) was 34.7% and the inhibition at 200 µM (MCF-7 cells; Homo sapiens, MCF7, KN510 200 μM, read-out: Inhibition rate of cancer cell growth (%) (Actual value)) was 50%. For the same compound, the “Cancer cell growth rate Average (%)” value (MCF-7 cells; KN510 100 μM) was 65.30%, the “Cancer cell growth rate Average (%)” value (MCF-7 cells; KN510 200 μM) was 49.96% and the inhibition at 100 µM (A549 cells; [1]) was 44.6%. For the same compound, the inhibition at 200 µM (A549 cells; [2]) was 69.7%, the “Cancer cell growth rate Average (%)” value (A549 cells; KN510 100 μM) was 55.44% and the “Cancer cell growth rate Average (%)” value (A549 cells; KN510 200 μM) was 30.29%. The inhibition at 100 µM (UACC-62 cells; [1]) was 53.4%, the inhibition at 200 µM (UACC-62 cells; [2]) was 96.4% and the “Cancer cell growth rate Average (%)” value (UACC-62 cells; KN510 100 μM) was 46.56%. The “Cancer cell growth rate Average (%)” value (UACC-62 cells; KN510 200 μM) was 3.59%, the inhibition at 100 µM (SK-OV-3 cells; [1]) was 11.5% and the inhibition at 200 µM (SK-OV-3 cells; [2]) was 59.8%. For the same compound, the “Cancer cell growth rate Average (%)” value (SK-OV-3 cells; KN510 100 μM) was 88.53% and the “Cancer cell growth rate Average (%)” value (SK-OV-3 cells; KN510 200 μM) was 40.18%.

With `CSc1ccc2c(c1)N(CCC1CCCCN1C)c1ccccc1S2` (stereo not shown) [KN714, 10-[2-(1-methyl-2-piperidyl)ethyl]-2-(methylthio)phenothiazine] the inhibition at 5 µM (DLD-1 cells; [3]) was 8.66%, the inhibition at 10 µM (DLD-1 cells; [4]) was 13.1% and the “Cancer cell growth rate Average (%)” value (DLD-1 cells; KN714 5 μM) was 91.34%. For the same compound, the “Cancer cell growth rate Average (%)” value (DLD-1 cells; KN714 10 μM) was 86.87%, the inhibition at 5 µM (MKN-28 cells; [3]) was 8.19% and the inhibition at 10 µM (MKN-28 cells; [4]) was 64%. The “Cancer cell growth rate Average (%)” value (MKN-28 cells; KN714 5 μM) was 91.81%, the “Cancer cell growth rate Average (%)” value (MKN-28 cells; KN714 10 μM) was 36.04% and the inhibition at 5 µM (H1975 cells; Homo sapiens, NCI-H1975, KN714 5 μM, read-out: Inhibition rate of cancer cell growth (%) (Actual value)) was -13.9%. The inhibition at 10 µM (H1975 cells; Homo sapiens, NCI-H1975, KN714 10 μM, read-out: Inhibition rate of cancer cell growth (%) (Actual value)) was 8.1%, the “Cancer cell growth rate Average (%)” value (H1975 cells; KN714 5 μM) was 113.89% and the “Cancer cell growth rate Average (%)” value (H1975 cells; KN714 10 μM) was 91.90%. The inhibition at 5 µM (CAKI-1 cells; [3]) was 24%, the inhibition at 10 µM (CAKI-1 cells; [4]) was 49.4% and the “Cancer cell growth rate Average (%)” value (CAKI-1 cells; KN714 5 μM) was 75.99%. The “Cancer cell growth rate Average (%)” value (CAKI-1 cells; KN714 10 μM) was 50.59%, the inhibition at 5 µM (MCF-7 cells; Homo sapiens, MCF7, KN714 5 μM, read-out: Inhibition rate of cancer cell growth (%) (Actual value)) was 1.49% and the inhibition at 10 µM (MCF-7 cells; Homo sapiens, MCF7, KN714 10 μM, read-out: Inhibition rate of cancer cell growth (%) (Actual value)) was 60.3%. For the same compound, the “Cancer cell growth rate Average (%)” value (MCF-7 cells; KN714 5 μM) was 98.51%, the “Cancer cell growth rate Average (%)” value (MCF-7 cells; KN714 10 μM) was 39.69% and the inhibition at 5 µM (A549 cells; [3]) was 2.15%. The inhibition at 10 µM (A549 cells; [4]) was 35.4%, the “Cancer cell growth rate Average (%)” value (A549 cells; KN714 5 μM) was 97.85% and the “Cancer cell growth rate Average (%)” value (A549 cells; KN714 10 μM) was 64.57%. For the same compound, the inhibition at 5 µM (UACC-62 cells; [3]) was 10.6%, the inhibition at 10 µM (UACC-62 cells; [4]) was 60.5% and the “Cancer cell growth rate Average (%)” value (UACC-62 cells; KN714 5 μM) was 89.43%. For the same compound, the “Cancer cell growth rate Average (%)” value (UACC-62 cells; KN714 10 μM) was 39.54%, the inhibition at 5 µM (SK-OV-3 cells; [3]) was 7.82% and the inhibition at 10 µM (SK-OV-3 cells; [4]) was 37.6%. The “Cancer cell growth rate Average (%)” value (SK-OV-3 cells; KN714 5 μM) was 92.18% and the “Cancer cell growth rate Average (%)” value (SK-OV-3 cells; KN714 10 μM) was 62.36%.
